In patent US12029682B2, “Spray ejector mechanisms and devices providing charge isolation and controllable droplet charge, and low dosage volume ophthalmic administration” (EYENOVIA, INC., priority 2012, dated 2024):
“Also recorded” adds a separate entry of the source.

Experiments:
Assay type in all cases: in vivo, beagle dog
glaucomatous beagles [1] = test: Intraocular pressure (IOP), TonoVet, in glaucomatous beagles
glaucomatous beagles [2] = test: Pupil diameter (PD), Jameson Caliper, in glaucomatous beagles
glaucomatous beagles [3] = test: Intraocular pressure (IOP), TonoVet, in glaucomatous beagles; settings: including control of morning IOP spike
Procedure: (§1) One glaucomatous beagle dog (female, aged 3 years) from the University of Florida MacKay Colony of Glaucomatous Beagles was chosen for this study. The animal was rested a minimum of one week before starting the study. Prior to the commencement of the study, the animal was assigned one eye to receive 1.5 μl of 0.005% latanoprost and the contralateral eye to remain untreated as a control. The basic measurement protocol was followed at all times and performed by the same operator. PD was measured via Jameson Caliper (mm horizontally). IOP was measured using a TonoVet instrument with clean probe (iCare). IOP and PD were measured at time 0, 1, 2, 4, 7 and 18 hours daily for two days. Immediately after the time 0 measurement, the animal received 1.5 μl of 0.005% latanoprost in its assigned eye with a spray device. The contralateral eye was left untreated. The spray device was checked for accuracy before and after every use, and required a 10% delivered dose accuracy in pretreatment. Standard measurements continued throughout each day at time 1, 2, 4, 7 and 18 hours. Possible endpoints included, but were not limited to, excessive ocular irritation, ocular damage, and other illness or injury. No statistical crossover was utilized for this study.
as §1, with “study.” for “study. The animal was rested a minimum of one week before starting the study.”, “receive 3.0” for “receive 1.5”, “0 measurements,” for “0 measurement,”, “animal was administered 3.0” for “animal received 1.5”, “eye using” for “eye with”, “spray ejector” for “spray”
All animals were rested for a minimum of one week before starting the trials. IOP and pupil diameter (PD) were measured 5 times (at 0, 1, 2, 4, and 7 hours) daily for four days (study days 1-4) to establish initial baseline levels. The basic measurement protocol was followed at all times and performed by the same operator. PD was measured via Jameson Caliper (mm horizontally). IOP was measured with a TonoVet instrument with clean probe (iCare). After three rest days, one eye was randomly assigned to receive 9 μl of 0.005% latanoprost delivered via a spray ejector device, and the contralateral eye was administered traditional latanoprost from a traditional eyedropper container (26-30 μl).
On study days 5-9, IOP and PD measurements were taken at approximately 0900 h (time 0). Immediately after time 0 measurements, each animal received a once-daily dose of 9 μl of generic 0.005% latanoprost in its assigned eye via the spray ejector device. The contralateral eye received a clinical dose (one drop) of the same commercially available topical drug from a traditional eyedropper (positive control). The spray ejector device was checked for accuracy before and after every use and required a 10% delivered dose accuracy in pretreatment. Standard measurements continued throughout each day at 0, 1, 2, 4, and 7 hours. Possible endpoints included, but were not limited to, excessive ocular irritation, ocular damage, and other illness or injury. No statistical crossover was utilized for this study. […]

glaucomatous beagles [4] = test: Ocular irritation observations in glaucomatous beagles
Procedure: Active drug delivery begins on study day eight. For five days, IOP and PD measurements are taken at 0900. Immediately after 0900 measurements (time 0), each animal receives 6 μl of generic latanoprost in its assigned eye with the ejector device, followed by a second dosing 3 minutes later of an additional 6 μl (to avoid overloading the conjunctival sac). The contralateral eye receives a clinical dose (one drop) of the same commercially-available topical drug from FDA approved container (positive control). The ejector device is checked for accuracy before and after every use (Table 1). Standard measurements continue throughout each day (at 0:30, 0:45, 1, 2, 7 hrs). Possible endpoints include, but are not limited to, excessive ocular irritation, ocular damage, or other illness and injury. […]
On study days 5-9, IOP and PD measurements were taken at approximately 0900 h (time 0). Immediately after these measurements, each animal received 6 μl of 0.03% bimatoprost in its assigned eye via the spray ejector device. The contralateral eye received a clinical dose (one drop) of the same commercially available topical drug from a traditional eyedropper (positive control). The spray ejector device was checked for accuracy before and after every use and required a 10% delivered dose accuracy in pretreatment. Standard measurements continued throughout each day at 0, 1, 2, 4, and 7 hours. Possible endpoints included, but were not limited to, excessive ocular irritation, ocular damage, and other illness or injury. No statistical crossover was utilized for this study.
Ophthalmic examinations (slit lamp with fluorescein and indirect ophthalmoscopy) were performed on the eyes of each animal prior to Study Day 1. Ocular findings were scored according to the McDonald-Shadduck Score System. Ocular findings were recorded using a standardized data collection sheet. Macroscopic observations were recorded in accordance with the Draize Scale for Scoring Ocular Lesions. Animals were assigned treatments based on basic randomization prior to study day one.
Following a 7 day rest period, the eye choice was reversed. Measurements of IOP, heart rate and pupil diameter (PD) were made at 0:15, 0:30, 0:45, 1, 2, 4, 7, and 18 hours in the primary and crossover study. A veterinary ophthalmologist evaluated each test subject before and after the study for evidence of ocular side effects.
Ophthalmic examinations (slit lamp with fluorescein and indirect ophthalmoscopy) were performed on the eyes of each animal prior to study day 1. Ocular findings were scored according to the McDonald-Shadduck score system and macroscopic observations were recorded in accordance with the Draize scale for scoring ocular lesions. Ocular findings were recorded using a standardized data collection sheet.

[5] = 0.0005%, 0.002%, positively charged, 3 mcl
[6] = 9 μl of 0.004% via spray ejector device, study day 1

SMILES: CC(C)OC(=O)CCC/C=C\C[C@@H]1[C@@H](/C=C/[C@@H](O)COc2cccc(C(F)(F)F)c2)[C@H](O)C[C@@H]1O [travoprost]
- IOP lowering compared to uncharged droplets (glaucomatous beagles [1]; [5]): greater IOP lowering
- IOP values vs baseline (glaucomatous beagles [1]; 0.004%, both treatments (18 μl spray ejector device, eyedropper)): much lower than baseline for a full 24 hours
- IOP lowering compared to uncharged droplets (glaucomatous beagles [1]; 0.004%, positively and negatively charged): greater IOP lowering
- IOP lowering (glaucomatous beagles [1]; 3 microliters, 0.002% and 0.0005%, spray ejector device with controllable droplet charge): greater IOP lowering
- spray ejector device vs micropipette treatment (glaucomatous beagles [1]; 9 μl of 0.004% each, throughout the study (p=0.7546)): no statistically significant differences
- highest average daily peak IOP (glaucomatous beagles [1]; 9 μl of 0.004% via spray ejector device, after 5 days of treatment): 18.83 mmHg
- time of significant changes in IOP from baseline (glaucomatous beagles [1]; [6]): 12 h
- post-treatment IOP (glaucomatous beagles [1]; 18 μl morning or evening dose via spray ejector device / traditional therapy): below 20 mmHg
- effectiveness at lowering/controlling IOP vs traditional therapy (glaucomatous beagles [1]; 18 μl of 0.004% once daily, morning or evening, via spray ejector device vs one drop (average 26 μl)): as effective at lowering IOP and constricting the pupil as the traditional therapy; also recorded: as effective at controlling IOP as traditional therapy
- difference in duration of IOP lowering, spray ejector device vs eyedropper (glaucomatous beagles [1]; 18 μl of 0.004% vs one drop): not significant
- duration of IOP lowering (glaucomatous beagles [1]; controllable droplet charge spray administration, 1xqd@hs dosing): full 24 hour IOP lowering
- decrease of pupillary diameter compared to uncharged droplets (glaucomatous beagles [2]; [5]): less decrease of pupillary diameter
- maximum miosis (glaucomatous beagles [2]; 9 μl of 0.004% via spray ejector device, at time 12 hours): 1.17 mm
- time of significant PD changes (glaucomatous beagles [2]; [6]): 12 h
- lowering of IOP over a 24 hour period compared with other prostaglandin agonists studied (glaucomatous beagles [3]): most effective of the prostaglandin agonists studied
- excessive eye irritation or other eye issues (glaucomatous beagles [4]; 9 μl of 0.004%, spray ejector device and micropipette): no reports of excessive eye irritation or other eye issues
- irritation vs eyedropper-treated eyes (glaucomatous beagles [4]; 18 μl of 0.004% via spray ejector device): less than that observed in the eyedropper-treated eyes
